{
  "source": "patent EP0327744A1",
  "about": "“Oxytocin and vasopressin antagonists” (Merck & Co., Inc., priority 1988, dated 1989)",
  "key": {"[1]": {"molecular_target": "T1, V₂(antidiuretic)-receptor (Rattus norvegicus, UniProt Q00788)", "T1 construct": "crude membrane preparation of rat liver (V₁ receptor) or kidney medulla (V₂ receptor); from tissue; host or cells: rat kidney medulla, crude membrane preparation", "T1 sequence (Q00788 whole entry)": "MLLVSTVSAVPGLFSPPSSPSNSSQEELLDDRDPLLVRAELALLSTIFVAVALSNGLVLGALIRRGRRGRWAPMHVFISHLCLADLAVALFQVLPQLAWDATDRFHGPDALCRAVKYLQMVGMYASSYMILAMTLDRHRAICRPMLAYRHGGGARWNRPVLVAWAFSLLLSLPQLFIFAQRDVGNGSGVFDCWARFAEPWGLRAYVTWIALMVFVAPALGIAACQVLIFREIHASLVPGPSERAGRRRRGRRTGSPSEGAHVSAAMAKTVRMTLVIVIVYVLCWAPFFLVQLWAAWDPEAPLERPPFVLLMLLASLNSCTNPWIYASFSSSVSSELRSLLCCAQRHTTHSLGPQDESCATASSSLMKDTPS", "assay": "[³H]Arginine Vasopressin Binding Assay, kidney medulla membranes (V₂)", "source_text": "(§1) The table summarizes the in vitro potencies of the various components to compete for ³H-vasopressin binding at two proposed vasopressin receptor subtypes (V₁, V₂), as well as to inhibit vasopressin-stimulated adenylate cyclase activity, a further measure of vasopressin antagonism.\n(§2) The [³H]Arginine Vasopressin Binding Assay is an in vitro procedure which was adapted from the method of Guillon et al., Eur. J. Pharmacol. 85: […] (1982). It measures the relative affinity of the various test compounds for vasopressin receptor(s) labelled by [³H]vasopressin. Vasopressin receptors have been divided into two subtypes pharmacologically: the V₁(pressor)-receptor found in liver and vascular smooth muscle and the V₂(antidiuretic)-receptor found in kidney medulla. The binding assay uses a crude membrane preparation of rat liver (V₁ receptor) or kidney medulla (V₂ receptor) which is incubated with [³H]vasopressin in the presence or absence of the test compound. The IC₅₀ values (concentrations to inhibit [³H]vasopressin binding by 50%) for the various compounds (see Table III) are measures of their potencies and are inversely related to their affinities."}, "[2]": {"molecular_target": "T2, Vasopressin-stimulated adenylate cyclase in kidney medulla (V₂) (Rattus norvegicus, UniProt Q00788)", "T2 construct": "Vasopressin-stimulated adenylate cyclase in kidney medulla, therefore, is used as a functional assay; from tissue", "T2 sequence (Q00788 whole entry)": "as above", "assay": "Vasopressin-stimulated adenylate cyclase functional assay in kidney medulla (V₂ antagonism)", "assay_type": "biochemical", "source_text": "as §1\nVasopressin exerts its antidiuretic effects on the kidney through the stimulation of adenylate cyclase activity. Vasopressin-stimulated adenylate cyclase in kidney medulla, therefore, is used as a functional assay to determine the potencies of the various test compounds as V₂-vasopressin antagonists. In this assay, the IC₅₀ values obtained for the various compounds (see Table III) are measures of their potencies to inhibit the vasopressin-stimulated conversion of ATP to cAMP by adenylate cyclase. This method was adapted from Seamon et al., PNAS 78: 3363-3367 (1981)."}, "V₁(pressor)-receptor": {"molecular_target": "T3, V₁(pressor)-receptor (Rattus norvegicus, UniProt P30560)", "T3 construct": "crude membrane preparation of rat liver (V₁ receptor); from tissue; host or cells: rat liver, crude membrane preparation", "T3 sequence (P30560 whole entry)": "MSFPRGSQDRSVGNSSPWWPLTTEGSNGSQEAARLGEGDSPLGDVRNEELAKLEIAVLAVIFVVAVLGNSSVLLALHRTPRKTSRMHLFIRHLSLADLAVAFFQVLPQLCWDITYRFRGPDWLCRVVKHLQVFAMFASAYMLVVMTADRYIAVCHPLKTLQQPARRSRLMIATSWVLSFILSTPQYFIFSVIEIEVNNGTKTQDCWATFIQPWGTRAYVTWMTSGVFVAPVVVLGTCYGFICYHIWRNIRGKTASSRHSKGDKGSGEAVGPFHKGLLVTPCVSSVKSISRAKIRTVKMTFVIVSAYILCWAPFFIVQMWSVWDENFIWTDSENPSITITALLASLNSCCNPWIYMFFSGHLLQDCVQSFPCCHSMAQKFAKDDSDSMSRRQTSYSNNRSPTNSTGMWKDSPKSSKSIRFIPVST", "assay": "[³H]Arginine Vasopressin Binding Assay, liver membranes (V₁)", "source_text": "as §1, §2"}, "oxytocin receptor": {"molecular_target": "T4, oxytocin receptor (Rattus norvegicus, UniProt P70536)", "T4 construct": "crude membrane preparation of rat uterus as the source of oxytocin receptors; from tissue; host or cells: rat uterus, crude membrane preparation", "T4 sequence (P70536 1-388)": "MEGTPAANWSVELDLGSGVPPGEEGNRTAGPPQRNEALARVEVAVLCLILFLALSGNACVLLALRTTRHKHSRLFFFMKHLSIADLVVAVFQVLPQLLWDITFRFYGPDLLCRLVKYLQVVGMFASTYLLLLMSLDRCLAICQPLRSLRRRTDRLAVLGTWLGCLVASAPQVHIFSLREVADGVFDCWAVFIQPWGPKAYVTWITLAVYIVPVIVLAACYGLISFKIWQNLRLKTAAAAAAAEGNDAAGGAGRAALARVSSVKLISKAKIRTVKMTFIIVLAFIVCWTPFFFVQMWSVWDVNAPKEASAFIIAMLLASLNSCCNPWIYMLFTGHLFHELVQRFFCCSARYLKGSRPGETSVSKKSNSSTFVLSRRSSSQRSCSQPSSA", "assay": "[³H]Oxytocin Binding Assay (crude membrane preparation of rat uterus)", "settings": "inhibition of [³H]oxytocin binding, rat uterus membranes; read-out: IC₅₀ (nM) [³H]OT (uterus)", "source_text": "Oxytocin receptors have been identified in mammalian uterine tissue through the use of in vitro radioligand binding assays. These receptor binding sites mediate the contractile response of the uterine myometrium to oxytocin. […] The assay uses a crude membrane preparation of rat uterus as the source of oxytocin receptors. […]"}, "[3]": {"settings": "IC₅₀ Values ³H-Arg⁸-Vasopressin Binding Kidney (V₂), rat kidney medulla membranes, mean ± standard error"}, "[4]": {"settings": "IC₅₀ Values ³H-Arg⁸-Vasopressin Binding Liver (V₁), rat liver membranes, mean ± standard error"}},
  "note": "Where two headings read alike, the source gives them in different places. Numbered stars: 1 amine (or outer) side, 2 acyl side, 3 side chain; on linkers, the order of the positions; unused ones are H or OH. Square brackets hold non-standard residues; d marks the D form. Peptide text beside a SMILES is read from it. ξ: configuration not given here. ξN(OH)Ile(3ξ) = CCC(C)C(NO)C(=O)O; NMeF = CN[CH](Cc1ccccc1)C(=O)O; X1 = O=C(C1CCCNN1[*:1])[*:2]",
  "data": [
    {"smiles": "CC(C)C1C(=O)N2NCCCC2C(=O)N2NCCCC2C(=O)N(C)C(Cc2ccccc2)C(=O)N2CCCC2C(=O)NC(Cc2ccccc2)C(=O)N1O", "note": "(centres unmarked) [Component A]", "values": [
      {"measurement": "IC50", "setting": "[1]; [3]", "result": 7.9, "unit": "µM"},
      {"measurement": "IC50", "setting": "[2]", "result": 19, "unit": "µM"},
      {"measurement": "IC50", "setting": "V₁(pressor)-receptor; [4]", "result": 6.8, "unit": "µM"}
    ]},
    {"smiles": "CC(C)CC1C(=O)N2NCCCC2C(=O)N2NCCCC2C(=O)N(C)C(Cc2ccccc2)C(=O)N2CCCC2C(=O)NC(C(C)C)C(=O)N1O", "note": "(centres unmarked) [Component B]", "values": [
      {"measurement": "IC50", "setting": "[1]; [3]", "result": "35.3 ± 6.1", "unit": "µM"},
      {"measurement": "IC50", "setting": "[2]", "result": "62.7 ± 4.6", "unit": "µM"},
      {"measurement": "IC50", "setting": "V₁(pressor)-receptor; [4]", "result": "67.3 ± 16.5", "unit": "µM"}
    ]},
    {"smiles": "CC(C)CC1C(=O)N2NCCCC2C(=O)N2NCCCC2C(=O)N(C)C(Cc2ccccc2)C(=O)N2CCCC2C(=O)NC(Cc2ccccc2)C(=O)N1O", "note": "(centres unmarked) [Component C]", "values": [
      {"measurement": "IC50", "setting": "[1]; IC₅₀ Values ³H-Arg⁸-Vasopressin Binding Kidney (V₂), rat kidney medulla membranes, molar IC₅₀ in brackets, based on MW of 700", "result": 13, "unit": "µM"},
      {"measurement": "IC50", "setting": "[1]; IC₅₀ Values ³H-Arg⁸-Vasopressin Binding Kidney (V₂), rat kidney medulla membranes, value in µg/ml (exact MW not known)", "result": 11.9, "unit": "µM"},
      {"measurement": "IC50", "setting": "[2]; read-out: IC₅₀ Values AVP-stimulated Ad. Cyclase Kidney (V₂), kidney medulla, molar IC₅₀ in brackets, based on MW of 700", "result": 13, "unit": "µM"},
      {"measurement": "IC50", "setting": "[2]; read-out: IC₅₀ Values AVP-stimulated Ad. Cyclase Kidney (V₂), kidney medulla, value in µg/ml (exact MW not known)", "result": 12.1, "unit": "µM"},
      {"measurement": "IC50", "setting": "V₁(pressor)-receptor; IC₅₀ Values ³H-Arg⁸-Vasopressin Binding Liver (V₁), rat liver membranes, molar IC₅₀ in brackets, based on MW of 700", "result": 6, "unit": "µM"},
      {"measurement": "IC50", "setting": "V₁(pressor)-receptor; IC₅₀ Values ³H-Arg⁸-Vasopressin Binding Liver (V₁), rat liver membranes, value in µg/ml (exact MW not known)", "result": 5.53, "unit": "µM"}
    ]},
    {"smiles": "CCC(C)C1NC(=O)C2CCCN2C(=O)C(Cc2ccccc2)N(C)C(=O)C2CCCNN2C(=O)C2CCCNN2C(=O)C(CC(C)C)N(O)C1=O", "note": "(centres unmarked) [Component D]", "values": [
      {"measurement": "IC50", "setting": "[1]; rat kidney medulla membranes, molar IC₅₀ in brackets, based on MW of 700, read-out: IC₅₀ Values ³H-Arg⁸-Vasopressin Binding Kidney (V₂) (converted)", "result": 19, "unit": "µM"},
      {"measurement": "IC50", "setting": "[1]; rat kidney medulla membranes, value in µg/ml (exact MW not known), read-out: IC₅₀ Values ³H-Arg⁸-Vasopressin Binding Kidney (V₂) (converted)", "result": 18.3, "unit": "µM"},
      {"measurement": "IC50", "setting": "[2]; kidney medulla, molar IC₅₀ in brackets, based on MW of 700, read-out: IC₅₀ Values AVP-stimulated Ad. Cyclase Kidney (V₂) (converted)", "result": 20, "unit": "µM"},
      {"measurement": "IC50", "setting": "[2]; kidney medulla, value in µg/ml (exact MW not known), read-out: IC₅₀ Values AVP-stimulated Ad. Cyclase Kidney (V₂) (converted)", "result": 19.3, "unit": "µM"},
      {"measurement": "IC50", "setting": "V₁(pressor)-receptor; rat liver membranes, molar IC₅₀ in brackets, based on MW of 700, read-out: IC₅₀ Values ³H-Arg⁸-Vasopressin Binding Liver (V₁) (converted)", "result": 30, "unit": "µM"},
      {"measurement": "IC50", "setting": "V₁(pressor)-receptor; rat liver membranes, value in µg/ml (exact MW not known), read-out: IC₅₀ Values ³H-Arg⁸-Vasopressin Binding Liver (V₁) (converted)", "result": 28.4, "unit": "µM"}
    ]},
    {"smiles": "CCC(C)C1NC(=O)C(Cc2ccccc2)NC(=O)C2CCCN2C(=O)C(Cc2ccccc2)N(C)C(=O)C2CCCNN2C(=O)C2CCCNN2C1=O", "note": "(centres unmarked) [Example 9] (cyclo([X1][X1][NMeF]PFI); configuration not given here)", "values": [
      {"measurement": "IC50", "setting": "oxytocin receptor", "result": "170 ± 15", "unit": "nM"}
    ]},
    {"smiles": "CCC(C)C1C(=O)N2NCCCC2C(=O)N2NCCCC2C(=O)N(C)C(Cc2ccccc2)C(=O)N2CCCC2C(=O)NC(Cc2ccccc2)C(=O)N1O", "note": "(centres unmarked) [Formula I] (cyclo([ξN(OH)Ile(3ξ)][X1][X1][NMeF]PF); configuration not given here)", "values": [
      {"measurement": "IC50", "setting": "oxytocin receptor", "result": "370 ± 70", "unit": "nM"},
      {"measurement": "IC50", "setting": "[1]", "result": "9.8 ± 1.7", "unit": "µM"},
      {"measurement": "IC50", "setting": "[2]", "result": "10.2 ± 1.1", "unit": "µM"},
      {"measurement": "IC50", "setting": "V₁(pressor)-receptor", "result": "11.7 ± 1.7", "unit": "µM"}
    ]}
  ]
}
